From ChEMBL document CHEMBL1201862, “PubChem BioAssay data set” (2004)
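Assay format: 96-well plates, 48-hour exposure. GI50 marks 50% less growth.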 Active and inactive are the calls of the source. Rule as the data show it: active = GI50 up to about 1.1 µM and inactive = higher.

Legend:
Test in all cases: NCI tumour cell line growth inhibition, 48 h
SNB-78 = test system: SNB-78
DLD-1 = test system: DLD-1
RXF 631 = test system: RXF 631
XF498 = test system: XF498
M19-MEL = test system: M19-MEL
HOP-18 = test system: HOP-18
DMS-114 = test system: DMS-114

Measured: GI50

O=C1CC(c2c[nH]c3ccccc23)C(=O)N1 (stereo unspecified)
inactive: SNB-78 > 100 µM | DLD-1 > 100 µM | RXF 631 > 100 µM | XF498 > 100 µM | M19-MEL > 100 µM

C/C(CN1C(=O)c2ccccc2C1=O)=N\NS(=O)(=O)c1ccc(Cl)cc1
inactive: SNB-78 > 100 µM | DLD-1 > 100 µM | HOP-18 > 100 µM | RXF 631 > 100 µM | XF498 > 100 µM | M19-MEL > 100 µM

C/C(CCn1[nH]c(=O)ccc1=O)=N\O
inactive: SNB-78 > 100 µM | DMS-114 > 100 µM | DLD-1 > 100 µM | HOP-18 > 100 µM | RXF 631 > 100 µM | XF498 > 100 µM | M19-MEL > 100 µM

CN1CN(C2OC(CO)C(O)C2O)c2nc(N)[nH]c(=O)c21 (stereo unspecified)
inactive: SNB-78 > 100 µM | DMS-114 > 100 µM | DLD-1 > 100 µM | HOP-18 > 100 µM | XF498 > 100 µM | M19-MEL > 100 µM

CCSc1nnc(CSc2nc(-c3ccccc3)c(-c3ccccc3)[nH]2)n1-c1ccccc1
inactive: SNB-78 41.1 µM | DMS-114 19 µM | DLD-1 20.2 µM | HOP-18 13.8 µM | RXF 631 19.6 µM | XF498 20.3 µM | M19-MEL 18.6 µM

COc1cccc2cc(C)c(C(=O)c3ccccc3)nc12
inactive: SNB-78 > 100 µM | DMS-114 > 100 µM | DLD-1 > 100 µM | HOP-18 > 100 µM | RXF 631 > 100 µM | XF498 > 100 µM | M19-MEL > 100 µM

CCC(=O)NCC1(c2c[nH]c3ccccc23)SCCS1
inactive: SNB-78 > 100 µM | DMS-114 47.5 µM | DLD-1 > 100 µM | HOP-18 > 100 µM | XF498 > 100 µM | M19-MEL > 100 µM

COC(=O)c1cc(=O)nc2cc3cccccc3n12
inactive: DLD-1 > 100 µM | HOP-18 > 100 µM | XF498 > 100 µM | M19-MEL > 100 µM

O=C(CC1=Nc2nnc(CCCCCCCc3nnc4n3C(=O)C(CC(=O)c3ccc5ccccc5c3)=N4)n2C1=O)c1ccc2ccccc2c1
inactive: SNB-78 > 100 µM | DMS-114 > 100 µM | DLD-1 > 100 µM | HOP-18 > 100 µM | RXF 631 51.9 µM | XF498 > 100 µM | M19-MEL > 100 µM

C[C@]12CC/C(=N\O)C=C1CC[C@@H]1C2CC[C@@]2(C)C1CC[C@@H]2OC1CCCCO1 (stereo partly specified)
inactive: SNB-78 19.1 µM | DMS-114 22 µM | DLD-1 30.7 µM | HOP-18 16.4 µM | M19-MEL 19.1 µM

COC(=O)/C(=N\Nc1nc(S)nn1N)C(C#N)c1ccc(Cl)cc1 (stereo unspecified)
inactive: SNB-78 > 100 µM | DMS-114 > 100 µM | DLD-1 > 100 µM | HOP-18 > 100 µM | RXF 631 > 100 µM | XF498 > 100 µM | M19-MEL > 100 µM

N/N=c1/nc2n(c3ncccc13)C=CNN2
inactive: DMS-114 > 100 µM | DLD-1 > 100 µM | RXF 631 > 100 µM | XF498 > 100 µM

Cc1cc(C)nc(NS(=O)(=O)c2ccc(Nc3c4ccccc4nc4c(C(=O)NCCN(C)C)ccc(Cl)c34)cc2)n1
inactive: SNB-78 8.3 µM | DLD-1 3.03 µM | XF498 5.13 µM | M19-MEL 2.05 µM
active: DMS-114 1.01 µM
